“And” between values parts separate entries of the source, which are not always exact repeats. Identical values can stand only once. “Also recorded” adds a separate entry of the source. Like-named read-outs stand apart in the source and are kept apart here.
How the values were obtained:
hNav1.7 = hNav1.7 (Homo sapiens, UniProt Q15858); assay: cell-based; assay type: cell-based; conditions: values quoted in text (average); read-out: hNav1.7 IC50 in the PX format
[1] = test system: TTX-sensitive Nav channels in mouse DRG neuron; assay type: cell-based
male CD-1 mice [2] = conditions: mouse, in vivo
male CD-1 mice [3] = conditions: mouse, in vivo; remark: listed apart in the source
male Sprague-Dawley rats [4] = assay type: in vivo, rat
[5] = human plasma, 37° C., incubation 0 hr
[6] = cyno plasma, 37° C., incubation 0 hr
[7] = 1 mg/kg s.c.
male CD-1 mice [8] = conditions: for terminal exposure (plasma): 2 h post peptide injection
male Sprague-Dawley rats [9] = conditions: 5.0 mg/kg s.c., 2 h post peptide injection
in vivo = conditions: CD-1, mouse, sc, 1 mg/kg
in vitro [10] = conditions: human, plasma
in vitro [11] = conditions: monkey, plasma
[12] = 0.1, 0.3 or 1.0 mg/kg s.c., 1-hour pre-treatment

Chain of hNav1.7 (Q15858 whole entry): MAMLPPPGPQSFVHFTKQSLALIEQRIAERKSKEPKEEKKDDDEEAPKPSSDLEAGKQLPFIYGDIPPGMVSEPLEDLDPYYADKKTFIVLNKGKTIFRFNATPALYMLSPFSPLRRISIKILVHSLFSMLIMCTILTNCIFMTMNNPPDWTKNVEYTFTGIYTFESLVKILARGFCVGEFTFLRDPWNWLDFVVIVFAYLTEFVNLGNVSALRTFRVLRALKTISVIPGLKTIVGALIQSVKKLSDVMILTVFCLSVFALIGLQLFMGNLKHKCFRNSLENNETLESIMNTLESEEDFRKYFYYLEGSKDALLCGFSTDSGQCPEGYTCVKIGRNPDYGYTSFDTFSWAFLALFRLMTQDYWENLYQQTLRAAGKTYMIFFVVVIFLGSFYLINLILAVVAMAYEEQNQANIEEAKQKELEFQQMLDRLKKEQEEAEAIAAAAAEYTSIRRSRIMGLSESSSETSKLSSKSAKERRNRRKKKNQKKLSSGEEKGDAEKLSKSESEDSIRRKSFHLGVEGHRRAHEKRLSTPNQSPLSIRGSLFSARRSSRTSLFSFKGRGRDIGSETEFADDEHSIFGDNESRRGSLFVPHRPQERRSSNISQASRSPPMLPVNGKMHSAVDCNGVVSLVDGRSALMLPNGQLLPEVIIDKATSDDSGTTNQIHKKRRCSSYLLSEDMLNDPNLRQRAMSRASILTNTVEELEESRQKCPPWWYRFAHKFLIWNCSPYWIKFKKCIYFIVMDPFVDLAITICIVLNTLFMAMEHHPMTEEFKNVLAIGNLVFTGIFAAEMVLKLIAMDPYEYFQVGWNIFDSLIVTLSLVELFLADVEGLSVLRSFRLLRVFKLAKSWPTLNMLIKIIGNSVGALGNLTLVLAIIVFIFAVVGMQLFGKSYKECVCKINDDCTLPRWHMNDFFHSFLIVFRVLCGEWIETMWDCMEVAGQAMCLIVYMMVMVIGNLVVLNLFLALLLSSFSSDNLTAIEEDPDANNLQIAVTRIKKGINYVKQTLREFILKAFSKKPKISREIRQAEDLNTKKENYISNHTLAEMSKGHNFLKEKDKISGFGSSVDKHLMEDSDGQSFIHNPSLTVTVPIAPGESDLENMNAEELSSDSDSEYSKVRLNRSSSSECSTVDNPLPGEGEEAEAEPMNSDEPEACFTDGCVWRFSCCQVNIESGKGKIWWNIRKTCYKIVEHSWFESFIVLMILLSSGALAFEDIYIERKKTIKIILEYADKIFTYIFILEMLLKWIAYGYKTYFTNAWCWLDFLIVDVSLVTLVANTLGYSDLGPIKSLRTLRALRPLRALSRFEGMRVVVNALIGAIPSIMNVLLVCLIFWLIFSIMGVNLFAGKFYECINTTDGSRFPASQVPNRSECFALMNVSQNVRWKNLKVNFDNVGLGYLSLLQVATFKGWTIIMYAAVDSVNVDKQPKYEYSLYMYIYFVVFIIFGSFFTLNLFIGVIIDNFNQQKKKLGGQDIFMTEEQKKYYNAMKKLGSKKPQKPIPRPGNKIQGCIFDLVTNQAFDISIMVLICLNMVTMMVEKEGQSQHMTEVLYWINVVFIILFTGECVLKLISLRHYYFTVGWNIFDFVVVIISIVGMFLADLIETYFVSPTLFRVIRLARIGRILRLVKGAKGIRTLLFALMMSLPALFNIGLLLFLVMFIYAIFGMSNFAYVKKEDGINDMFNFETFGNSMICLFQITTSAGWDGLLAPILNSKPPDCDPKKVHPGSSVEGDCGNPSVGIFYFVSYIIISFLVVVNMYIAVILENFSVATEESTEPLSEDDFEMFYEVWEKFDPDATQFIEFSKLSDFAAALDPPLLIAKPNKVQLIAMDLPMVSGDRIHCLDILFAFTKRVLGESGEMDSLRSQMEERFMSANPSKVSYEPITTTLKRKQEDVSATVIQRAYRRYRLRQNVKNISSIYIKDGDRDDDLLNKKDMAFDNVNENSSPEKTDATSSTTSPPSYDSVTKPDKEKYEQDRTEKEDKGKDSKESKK

## CC[C@H](C)[C@H](NC(=O)[C@H](CCCCN)NC(=O)[C@H](CCCNC(=N)N)NC(=O)[C@@H]1CSSC[C@@H]2NC(=O)[C@H](C)NC(=O)[C@H](CCCNC(=N)N)NC(=O)[C@H](CCCCN)NC(=O)[C@H](CO)NC(=O)[C@H](CC(=O)O)NC(=O)[C@@H]3CSSC[C@H](NC(=O)[C@H](CCC(=O)O)NC(=O)[C@H](CC(C)C)NC(=O)CNC(=O)[C@H](CCC(=O)O)NC(=O)[C@H](CSSC[C@H](NC(=O)[C@@H](N)Cc4ccc(O)cc4)C(=O)N[C@@H](CCC(N)=O)C(=O)N[C@@H](CCCCN)C(=O)N[C@@H](Cc4c[nH]c5ccccc45)C(=O)N[C@@H](CCSC)C(=O)N[C@@H](Cc4c[nH]c5ccccc45)C(=O)N[C@@H]([C@@H](C)O)C(=O)N3)NC2=O)C(=O)N[C@@H](CCCCN)C(=O)N[C@@H](CC(C)C)C(=O)N[C@@H](Cc2c[nH]c3ccccc23)C(=O)N1)C(=O)N[C@@H](Cc1c[nH]c2ccccc12)C(N)=O [SEQ ID NO: 112, [Glu20;Trp29]JzTx-V(1-29)]
hNav1.7
  IC50: 1.5 nM
[1]
  block of TTX-sensitive Nav current: only blocked around half of TTX-sensitive Nav current; also recorded: only partially blocked TTX-sensitive Nav current; also recorded: only partial inhibition
[1]; TTX-sensitive current, mouse DRG neurons
  loss in potency relative to the human clone of Nav1.7: ~1000 fold
Male CD-1 mice [2]
  time spent lifting and/or licking the affected paw, first phase (0-5 min): no effect and Neither the peptide nor the morphine positive control significantly reduced and 1 mg/kg dose of peptide may have slightly increased the pain response
  time spent lifting and/or licking the affected paw, second phase (5-40 min): no effect; also recorded: but not the peptide significantly reduced
Male CD-1 mice [3]
  thermal latency / thermal hyperalgesia: no effect
Male Sprague-Dawley rats [4]; peptide 5.0 mg/kg s.c. 1-h pre-treatment, vs vehicle (PBS)
  formalin response, first or acute phase (0-5 min): no effect
Male Sprague-Dawley rats [4]; rat, in vivo
  formalin response, second phase (5-40 min): did not decrease and may have actually increased; also recorded: may have actually increased the pain response
[5]
  % Peptide Remaining: 100%
[6]
  % Peptide Remaining: 100%
[7]; CD-1 mice
  plasma concentration over the in vitro hNav1.7 IC50 by PX: 26 fold
[7]; mice
  time with measurable plasma concentrations: 4 h
  tolerability: tolerated
Male CD-1 mice [8]; 0.1 mg/kg s.c.
  terminal exposure (plasma): 0.0248 ± 0.00668 µM
Male CD-1 mice [8]; 0.3 mg/kg s.c.
  terminal exposure (plasma): 0.121 ± 0.0296 µM
Male CD-1 mice [8]; 1.0 mg/kg s.c.
  terminal exposure (plasma): 0.419 ± 0.226 µM
Male CD-1 mice [8]; 5.0 mg/kg s.c.
  terminal exposure (plasma): 4.73 ± 0.584 µM
Male CD-1 mice [8]; [12]
  total fine movement: no effect
  total time rearing: no effect
Male Sprague-Dawley rats [9]
  terminal exposure (plasma): 0.994 ± 0.184 µM
In vivo
  half-life: ~2.08 h
In vitro [10]
  remaining at 2 h: 95%
  remaining at 4 h: 84%
  remaining at 6 h: 75%
  remaining at 8 h: 71%
  remaining at 24 h: 48%
In vitro [11]
  remaining at 2 h: 93%
  remaining at 4 h: 91%
  remaining at 6 h: 90%
  remaining at 8 h: 91%
  remaining at 24 h: 89%

Reference: patent US9636418B2 (priority 2013, dated 2017)
